Experiment [1] has as its target TrpS protein (tryptophanyl tRNA synthetase) (Escherichia coli, UniProt P00954). Description: Target-inhibitor interaction by SPR. The experiment is classed as binding. An excerpt:
(§1) We have examined specific binding interactions between select target proteins and their specific inhibitors. […] [drawing]
Background: Surface plasmon resonance follows binding to a sensor surface in real time, without labels.

For experiment [2], the target named is Bovine Serum Albumin (BSA) (Bos taurus, UniProt P02769). Description: SPR binding of ferulic acid to pre-immobilized BSA. To be noted: 10, 20, and 50 μM injected; flow rate 1 mL/h. The method, then:
By injecting solutions containing different concentrations of FA and recording the resultant sensorgrams, the binding constant between FA and BSA was measured. […] Three different FA concentrations (10, 20, and 50 μM) were injected. A flow rate of 1 mL/h was used. [drawing 1] [drawing] Representative SPR sensorgrams showing binding of ferulic acid (structure on the left) onto pre-immobilized BSA molecules.

Another experiment deals with MurG protein (Escherichia coli, UniProt P17443). Description: Target-inhibitor interaction by SPR. The experiment is classed as binding.
Text: as §1

For experiment [3], the system named is A. baumannii clinical isolate NY C. Briefly: Antibiotic susceptibility profile. It counts as cell-based, Acinetobacter baumannii. Further details: key: Resistance; Intermediate; Susceptible. The gist of the method: (§2)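 R/I/S calls per drug; panel limited to agents having A. baumannii breakpoints; isolates from hospital-acquired infections, LA County and NYC.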

The subject of experiment [4] is A. baumannii clinical isolate LAC 19. Briefly: Antibiotic susceptibility profile. Details: key: Resistance; Intermediate; Susceptible. The experiment is classed as cell-based, Acinetobacter baumannii. The method, boiled down:
as §2

The subject of experiment [5] is A. baumannii clinical isolate LAC 01. Description: Antibiotic susceptibility profile. It counts as cell-based, Acinetobacter baumannii. Further details: key: Resistance; Intermediate; Susceptible. The method, boiled down:
as §2

Experiment [6] has as its system A. baumannii clinical isolate NY G. Description: Antibiotic susceptibility profile. Details: key: Resistance; Intermediate; Susceptible. It counts as cell-based, Acinetobacter baumannii. The method, boiled down:
as §2

The test system of experiment [7] is A. baumannii clinical isolate NY D. Briefly: Antibiotic susceptibility profile. It counts as cell-based, Acinetobacter baumannii. Details: key: Resistance; Intermediate; Susceptible. The gist of the method:
as §2

The test system of experiment [8] is A. baumannii clinical isolate LAC 18. Briefly: Antibiotic susceptibility profile. The experiment is classed as cell-based, Acinetobacter baumannii. Details: key: Resistance; Intermediate; Susceptible. The gist of the method:
as §2

The subject of experiment [9] is A. baumannii clinical isolate LAC 15. Description: Antibiotic susceptibility profile. It counts as cell-based, Acinetobacter baumannii. Further details: key: Resistance; Intermediate; Susceptible. The method, boiled down: as §2
For experiment [10], the system named is A. baumannii clinical isolate LAC 05. Description: Antibiotic susceptibility profile. The experiment is classed as cell-based, Acinetobacter baumannii. Details: key: Resistance; Intermediate; Susceptible. The gist of the method: as §2
For experiment [11], the system named is A. baumannii clinical isolate LAC 02. Briefly: Antibiotic susceptibility profile. Further details: key: Resistance; Intermediate; Susceptible. It counts as cell-based, Acinetobacter baumannii. The gist of the method: as §2
The test system of experiment [12] is A. baumannii reference strain 15839. Briefly: Antibiotic susceptibility profile. Further details: key: Resistance; Intermediate; Susceptible. It counts as cell-based, Acinetobacter baumannii. The following applies: strain 15839 (ATCC). The method, boiled down:
as §2

For experiment [13], the system named is A. baumannii clinical isolate LAC 17. Briefly: Antibiotic susceptibility profile. The experiment is classed as cell-based, Acinetobacter baumannii. Details: key: Resistance; Intermediate; Susceptible. The method, boiled down:
as §2

Experiment [14] relates to A. baumannii clinical isolate NY A. Briefly: Antibiotic susceptibility profile. The experiment is classed as cell-based, Acinetobacter baumannii. Further details: key: Resistance; Intermediate; Susceptible. The gist of the method: as §2
The subject of experiment [15] is A. baumannii reference strain SDF. Description: Antibiotic susceptibility profile. It counts as cell-based, Acinetobacter baumannii. Further details: key: Resistance; Intermediate; Susceptible. The method, boiled down:
as §2

For experiment [16], the system named is A. baumannii reference strain 17978. Description: Antibiotic susceptibility profile. It counts as cell-based, Acinetobacter baumannii. Further details: key: Resistance; Intermediate; Susceptible. To be noted: strain 17978 (ATCC). The gist of the method: as §2
For experiment [17], the system named is A. baumannii clinical isolate LAC 12. Description: Antibiotic susceptibility profile. The experiment is classed as cell-based, Acinetobacter baumannii. Further details: key: Resistance; Intermediate; Susceptible. The method, boiled down:
as §2

Experiment [18] has as its system A. baumannii clinical isolate LAC 08. Description: Antibiotic susceptibility profile. The experiment is classed as cell-based, Acinetobacter baumannii. Details: key: Resistance; Intermediate; Susceptible. The gist of the method:
as §2

For experiment [19], the system named is A. baumannii clinical isolate LAC 20. Description: Antibiotic susceptibility profile. Further details: key: Resistance; Intermediate; Susceptible. The experiment is classed as cell-based, Acinetobacter baumannii. The method, boiled down: as §2
The test system of experiment [20] is A. baumannii clinical isolate LAC 13. Briefly: Antibiotic susceptibility profile. The experiment is classed as cell-based, Acinetobacter baumannii. Further details: key: Resistance; Intermediate; Susceptible. The method, boiled down: as §2
Experiment [21] concerns A. baumannii clinical isolate NY H. Description: Antibiotic susceptibility profile. The experiment is classed as cell-based, Acinetobacter baumannii. Details: key: Resistance; Intermediate; Susceptible. The gist of the method: as §2
Experiment [22] concerns A. baumannii clinical isolate LAC 11. Description: Antibiotic susceptibility profile. The experiment is classed as cell-based, Acinetobacter baumannii. Details: key: Resistance; Intermediate; Susceptible. The method, boiled down:
as §2

In experiment [23] the test system is A. baumannii clinical isolate NY E. Briefly: Antibiotic susceptibility profile. Further details: key: Resistance; Intermediate; Susceptible. The experiment is classed as cell-based, Acinetobacter baumannii. The method, boiled down:
as §2

Experiment [24] has as its system A. baumannii clinical isolate NY F. Description: Antibiotic susceptibility profile. The experiment is classed as cell-based, Acinetobacter baumannii. Details: key: Resistance; Intermediate; Susceptible. The method, boiled down:
as §2

The subject of experiment [25] is A. baumannii clinical isolate LAC 04. Briefly: Antibiotic susceptibility profile. Further details: key: Resistance; Intermediate; Susceptible. It counts as cell-based, Acinetobacter baumannii. The method, boiled down:
as §2

The test system of experiment [26] is A. baumannii clinical isolate LAC 16. Briefly: Antibiotic susceptibility profile. The experiment is classed as cell-based, Acinetobacter baumannii. Further details: key: Resistance; Intermediate; Susceptible. The gist of the method: as §2
Experiment [27] concerns A. baumannii clinical isolate LAC 09. Description: Antibiotic susceptibility profile. The experiment is classed as cell-based, Acinetobacter baumannii. Further details: key: Resistance; Intermediate; Susceptible. The method, boiled down:
as §2

The subject of experiment [28] is A. baumannii reference strain AYE. Briefly: Antibiotic susceptibility profile. Details: key: Resistance; Intermediate; Susceptible. It counts as cell-based, Acinetobacter baumannii. The gist of the method: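 Clinical isolates from nosocomial infections in New York City and Los Angeles, tested alongside reference strains against only antibiotics having A. baumannii breakpoints; each scored R (resistant), I (intermediate) or S (susceptible).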

The subject of experiment [29] is A. baumannii clinical isolate NY B. Briefly: Antibiotic susceptibility profile. It counts as cell-based, Acinetobacter baumannii. Details: key: Resistance; Intermediate; Susceptible. The gist of the method: as §2
For experiment [30], the system named is A. baumannii clinical isolate LAC 03. Description: Antibiotic susceptibility profile. It counts as cell-based, Acinetobacter baumannii. Details: key: Resistance; Intermediate; Susceptible. The gist of the method: as §2
Experiment [31] relates to A. baumannii reference strain 19606. Description: Antibiotic susceptibility profile. The experiment is classed as cell-based, Acinetobacter baumannii. Details: key: Resistance; Intermediate; Susceptible. The following applies: strain 19606 (ATCC). The gist of the method: as §2
Experiment [32] relates to A. baumannii clinical isolate LAC 06. Briefly: Antibiotic susceptibility profile. It counts as cell-based, Acinetobacter baumannii. Further details: key: Resistance; Intermediate; Susceptible. The method, boiled down: as §2
The subject of experiment [33] is A. baumannii clinical isolate LAC 14. Description: Antibiotic susceptibility profile. It counts as cell-based, Acinetobacter baumannii. Details: key: Resistance; Intermediate; Susceptible. The gist of the method: as §2
Experiment [34] has as its system A. baumannii clinical isolate LAC 07. Briefly: Antibiotic susceptibility profile. The experiment is classed as cell-based, Acinetobacter baumannii. Details: key: Resistance; Intermediate; Susceptible. The method, boiled down:
as §2

Experiment [35] relates to A. baumannii clinical isolate LAC 10. Description: Antibiotic susceptibility profile. The experiment is classed as cell-based, Acinetobacter baumannii. Details: key: Resistance; Intermediate; Susceptible. The gist of the method: as §2

Bovine Serum Albumin (BSA), sequence (P02769 25-607): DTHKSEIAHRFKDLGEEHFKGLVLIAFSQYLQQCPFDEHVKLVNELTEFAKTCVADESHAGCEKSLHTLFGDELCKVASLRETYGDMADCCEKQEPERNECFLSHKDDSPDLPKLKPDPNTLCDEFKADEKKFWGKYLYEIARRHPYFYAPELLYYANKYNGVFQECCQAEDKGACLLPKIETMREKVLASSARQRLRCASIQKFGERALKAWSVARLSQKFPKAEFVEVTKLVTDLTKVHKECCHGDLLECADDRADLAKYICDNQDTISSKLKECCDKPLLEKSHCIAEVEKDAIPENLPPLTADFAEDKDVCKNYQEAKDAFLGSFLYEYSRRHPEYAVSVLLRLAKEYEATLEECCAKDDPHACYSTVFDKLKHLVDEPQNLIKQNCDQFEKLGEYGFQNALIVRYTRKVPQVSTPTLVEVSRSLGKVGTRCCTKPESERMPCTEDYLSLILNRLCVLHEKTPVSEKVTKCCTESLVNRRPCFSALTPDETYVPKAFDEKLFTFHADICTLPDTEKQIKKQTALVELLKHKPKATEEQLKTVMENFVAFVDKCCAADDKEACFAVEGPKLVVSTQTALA
MurG protein, sequence (P17443 whole entry): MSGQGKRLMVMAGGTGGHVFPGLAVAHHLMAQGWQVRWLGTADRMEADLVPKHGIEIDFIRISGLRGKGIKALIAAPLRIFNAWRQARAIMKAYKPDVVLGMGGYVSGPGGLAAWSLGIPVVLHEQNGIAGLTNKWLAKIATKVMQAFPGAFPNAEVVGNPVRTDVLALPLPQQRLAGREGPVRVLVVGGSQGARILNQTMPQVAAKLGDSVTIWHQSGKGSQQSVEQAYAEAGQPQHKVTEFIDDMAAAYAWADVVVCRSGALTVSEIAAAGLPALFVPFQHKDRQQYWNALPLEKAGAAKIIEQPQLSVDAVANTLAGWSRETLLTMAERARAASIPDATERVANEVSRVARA

Turning to `CN=C1NC(=O)[C@H]([C@H](C)c2c[nH]c3ccccc23)O1` [indolmycin], the “interaction with TrpS protein by SPR” value in experiment [1] is listed as “Specific interaction”.

Consider `COc1cc(/C=C/C(=O)O)ccc1O` [ferulic acid], for which the “binding onto pre-immobilized BSA (SPR sensorgrams)” value in experiment [2] is “binding”.

As for ramoplanin, on MurG protein, the “binding to MurG protein by SPR” value was “Dose-dependent specific binding”.

For the compound `CO/N=C(\C(=O)N[C@@H]1C(=O)N2C(C(=O)O)=C(COC(C)=O)CS[C@H]12)c1csc(N)n1` [CTX, Cefotaxime], the Antibiotic susceptibility result in [3], in experiment [4], in [5], in experiment [6], in [7] and in experiment [8] was “R” in each case. In addition, the Antibiotic susceptibility entry in experiment [9] is “R”; in experiment [10] it was “I”; in experiment [11] it was “R”; in [12], “R”; in experiment [13], “R”; in experiment [14], “R”. In addition, the Antibiotic susceptibility entry in [15] was “S”; in experiment [16], “S”; in experiment [17] it was “R”; in [18] it was “I”; in experiment [19], “R”; in experiment [20], “R”. In addition, the Antibiotic susceptibility entry in [21], in experiment [22], in experiment [23], in experiment [24], in experiment [25] and in [26] was “R” each time. For the same compound, the Antibiotic susceptibility result is reported as “R” in experiment [27]; “R” in experiment [28]; “R” in experiment [29]; “R” in experiment [30]; “I” in experiment [31]; “R” in experiment [32]. In addition, the Antibiotic susceptibility result in experiment [33], in experiment [34] and in experiment [35] was “R” each time.

With `C[C@@H](O)[C@H]1C(=O)N2C(C(=O)O)=C(S[C@@H]3CN[C@H](C(=O)N(C)C)C3)[C@H](C)[C@H]12` [MEM, Meropenem], the Antibiotic susceptibility entry in experiment [3] is on record as “R”; in [4] it was “R”; in experiment [5], “R”; in [6], “R”; in experiment [7] it was “R”; in [8] it was “S”. The Antibiotic susceptibility result is “R” in experiment [9]; “S” in experiment [10]; “R” in experiment [11]; “S” in experiment [12]; “S” in [13]; “R” in [14]. Besides, the Antibiotic susceptibility result in experiment [15] is on record as “S”; in experiment [16], “S”; in experiment [17], “S”; in experiment [18] it was “S”; in [19], “I”; in experiment [20] it was “S”. Further, the Antibiotic susceptibility entry in experiment [21] was “R”; in [22] it was “R”; in [23] it was “R”; in experiment [24] it was “R”; in [25], “S”; in experiment [26], “S”. Besides, the Antibiotic susceptibility result is “R” in experiment [27]; “S” in [28]; “R” in experiment [29]; “I” in experiment [30]; “S” in [31]; “S” in [32]. For the same compound, the Antibiotic susceptibility result in experiment [33] was “S”; in experiment [34] it was “R”; in [35], “R”.

Take Gentamicin: the Antibiotic susceptibility result is listed as “R” in [3]; “R” in [4]; “R” in experiment [5]; “S” in experiment [6]; “R” in [7]; “R” in [8]. Besides, the Antibiotic susceptibility result was “I” in [9]; “R” in experiment [10]; “I” in [11]; “R” in experiment [12]; “R” in experiment [13]; “R” in [14]. Further, the Antibiotic susceptibility result was “S” in experiment [15]; “S” in experiment [16]; “R” in [17]; “R” in experiment [18]; “R” in [19]; “I” in experiment [20]. Also, the Antibiotic susceptibility result in experiment [21], in experiment [22], in [23], in experiment [24], in [25] and in experiment [26] was “R” each time. The Antibiotic susceptibility result in experiment [27], in experiment [28], in experiment [29], in [30], in experiment [31] and in experiment [32] was “R” throughout. The Antibiotic susceptibility result in experiment [33], in experiment [34] and in [35] was “R” each time.

Values taken from patent publication US20080090734A1, “DRUG SCREENING AND TARGET IDENTIFICATION USING SPR IMAGING OF TARGET PROTEIN ARRAYS” (The Trustees of California State University, priority 2006, published 2008).
